Measurements published in US11819021B2, “Peptides and methods and uses thereof for modulating anaphase promoting complex (APC) activity” (University of Saskatchewan, priority 2017, dated 2023).
Entries after “also recorded” stand apart in the source; their conditions may differ. No end group written: not given here.

Legend:
Cyclin B = experiment: Western of APC substrate abundance in PDX tumor; assay type: in vivo, mouse; conditions: 25 mg/kg, after sacrifice on Day 6
Method: (§1) A. In vivo study of M2I-1 impact on human breast tumor (4-28 PDX). Single 25 mg/kg i.p. injection (treatment) versus mock (DMSO) day 1, tumor size measured daily. B. Western analysis of apoptosis (PARP cleavage—24 kDa band) and APC substrate abundance (Cyclin B) in liver and tumor of treated and control after sacrifice on Day 6.
(§2) A mouse model for growing patient derived breast tumor cells obtained from a patient with triple negative breast cancer was developed. This patient had developed resistance to Doxorubicin. Tumors growing in these mice grow rapidly. A mouse was injected with 25 mg/kg M2I-1.

[1] = system: human breast tumor (4-28 PDX); experiment: Tumor growth in mouse model of patient derived triple negative breast cancer (4-28 PDX); assay type: in vivo; conditions: single 25 mg/kg i.p. injection, Doxorubicin resistant TNBC PDX mouse
Method: as §1, §2

[2] = system: OSW canine lymphoma cells; experiment: Trypan Blue viability of drug resistant OSW lymphoma cells; assay type: cell-based; conditions: OSW dog lymphoma cells selected for drug resistance; 1 μmol M2I-1 (18 hrs) then 1 μmol DOX (48 hrs)
Method: (§3) A. Parental MCF7 human breast cancer cells, or cells selected for resistance to Tamoxifen, were treated with 1 or 5 μM M2I-1. Tamoxifen resistant cells were also treated with both Doxorubicin and M2I-1. Trypan Blue. (3 rpts). ND, no data. B. Protein lysates were prepared from the cells used in A. The APC target HURP was measured using antibodies against HURP. C. Trypan Blue was used to measure viability of OSW canine lymphoma cells pretreated with 1 μmol M2I-1 (18 hrs), followed by 1 μmol DOX (48 hrs). Parental cells were only treated with monotherapy (3 rpts). ND, no data. D. OSW matched cells treated with the APC activator M2I-1 were prepared for APC substrate westerns E. Quantification of western protein abundance (3 rpts).
(§4) Drug resistant human breast cancer cells in culture were treated with the M2I-1 activator.

[3] = system: MCF7 human breast cancer cells selected for resistance to Tamoxifen; experiment: Trypan Blue viability of drug resistant MCF7 breast cancer cells; assay type: cell-based
Method: as §3, §4

HURP = experiment: Western of APC substrates in drug resistant MCF7 cells; assay type: cell-based; conditions: drug resistant human breast cancer cells
Method: as §3, §4

[4] = system: wild type (WT) yeast cells; experiment: Spot dilution growth and stress resistance of wild type yeast cells expressing peptides; assay type: cell-based
Method: (§5) A. apc5^CA (temperature sensitive allele) cells were transformed with C43-4, C2-4B or an empty vector. Cells grown overnight in 2% Glu were struck onto 2% Glucose plates and used for the yeast replicative lifespan (RLS) assay. B. Wild type (WT) cells transformed with C43-4, C2-4B or an empty vector were grown to stationary phase in 2% Glu media, then after 2 days spot diluted onto 2% Glu or 2% Gal to induce expression of the aptamers.
The cells were exposed to 5 sec of UV from a UV box prior to incubation. The plus signs define growth compared to the empty vector control.
(§6) The six peptide expressing vectors were transformed into apc10Δ cells and assessed for temperature sensitive growth. Two of the peptides, C43-4 and C2-4B, suppressed the apc10Δ growth phenotype at 30 and 34° C. (FIG. 1B-D). […] However, C43-4 and C2-4B increased replicative and chronological lifespan in both apc5^CA and WT cells, respectively (FIG. 2A). […] H2O2 induces oxidative stress whereas galactose induces a carbon stress.
These cells were spot diluted on Trp-plates and grown at the temperatures shown and/or exposed to ultraviolet (UV) irradiation (FIG. 11). At low level expression on glucose, some of the mutations caused stress dependent phenotypes.
Methods • 1. Cells were cultured overnight in Trp-2% glucose media • 2. The growth of the cells was determined by measuring the optical density (OD) of the cells at 600 nm (OD600) • 3. Cells were diluted to OD600 of 1 with fresh culture media • 4. 100 ul of each culture was pipetted into a well of a 96 well plate • 5. 10 ul of the each starting culture was pipetted into 90 ul of water in 4 additional wells to make a 10-fold serial spot dilution • 6. 5 ul from each serial dilution was spotted onto plates containing standard growth media with either 2% glucose or 2% galactose using a multi-pipettor • 7. The plates were exposed to UV • 8. The plates were then placed at room temperature, 30, 34 or 37° C. for 3-7 days • 9. The plates were scanned and saved as tiff files

[5] = system: APC mutant (apc5 temperature sensitive mutant and/or apc10Δ mutant); experiment: Viability/growth of APC mutant yeast cells; assay type: cell-based
Method: (§7) A. apc5^CA cells expressing small peptides were assayed for replicative life span (RLS). B. Cells expressing HTZ1 were grown under stress conditions. HTZ1 expression, even at low levels, suppresses apc5^CA and apc10Δ defects. The cells shown were transformed with either an empty vector or GAL inducible HTZ1. On 2% glucose, the construct is weakly expressed, and this is enough to increase growth of APC mutants at 30° C.
Examples of yeast cells with defective anaphase promoting complex (APC) function include apc5 and apc10 mutants. An example of an apc5 mutant is the apc5 temperature sensitive mutant described herein. An example of an apc10 mutant is the apc10 deletion mutant described herein.
(§8) The reverse genetic screen utilized a yeast 2-hybrid (Y2H) protocol that selected for peptides that bound to the APC subunits Apc5 or Apc10 (see FIG. 5 for APC structure), to assess whether peptide-binding might modify APC function. Peptides that bound APC subunits were then assayed for those that suppressed APC mutant defects.
(§9) Over 100 peptides that bound either Apc5 or Apc10 were recovered from millions screened. Six peptides that reproducibly interacted with the Apc10 bait construct in Y2H assays were examined further. Vectors expressing these 6 peptides were transformed into APC mutant cells and assessed for ts growth.

wheat embryos = experiment: Expression of C43-4 in wheat embryos: localization and germination; assay type: in vivo; conditions: versus empty vector controls
Method: (§10) A. Wheat embryos were transformed with an expression vector harboring the C43-4-HA peptide fused to the red fluoresce protein (RFP), or an RFP empty vector, using a ballistic shotgun approach. Embryos were imaged using fluorescence to view RFP. B. Protein lysates were prepared from the transformed embryos and subjected to western analyses using antibodies against the APC substrate Securin. A nonspecific protein band is used to control for protein load.
C43-4 was subcloned into a plant vector and expressed in wheat embryos.
The wheat embryos (scutella) were transformed using a Biolistics-mediated transformation of wheat embryos. Wheat embryos were inoculated with Agrobacterium harbouring an RFP expression vector. Following inoculation with Agrobacterium, embryos were placed on a medium that allows for growth of both the embryos and the Agrobacterium. Timentin was used for killing remaining A. tumefaciens cells after co-cultivation.
Germination rate was determined as a function of time to observe growth from the embryo and on average, the transformed embryos containing the peptide germinated before empty vector controls. […] Accordingly, the Htz1-like peptide (C43-4) activates the APC in plants.

Securin = experiment: Western of APC substrate in transformed wheat embryos; assay type: cell-based
Method: as §10
APC targets APC substrates for degradation such that the relative levels provides an indication of APC activity in a cell. For example, if the substrates are reduced, without being bound by any theory, it is believed to mean that the APC is working better.

Apc10 = molecular target: T1, Apc10 (Saccharomyces cerevisiae, UniProt P53068); experiment: Yeast 2-hybrid (Y2H) binding of peptide prey to Apc10 bait; conditions: galactose-inducible Trx-scaffold peptide prey
T1 construct: expressed in transfected cells; host or cells: yeast Y2H cells
T1 sequence (P53068 1-250): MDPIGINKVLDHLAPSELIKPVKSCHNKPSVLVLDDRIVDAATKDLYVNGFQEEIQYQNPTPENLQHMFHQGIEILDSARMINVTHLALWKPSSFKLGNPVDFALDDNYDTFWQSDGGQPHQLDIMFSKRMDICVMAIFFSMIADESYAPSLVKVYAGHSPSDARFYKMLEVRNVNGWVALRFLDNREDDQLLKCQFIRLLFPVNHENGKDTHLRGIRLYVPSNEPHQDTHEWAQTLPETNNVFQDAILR
Method: as §8
A library of random small peptides were cloned into a Thioredoxin (Trx) scaffold (see FIG. 6 for Trx-aptamer structure) and expressed from a galactose-inducible Y2H prey vector in cells expressing the Apc10 bait vector (the modified Apc10 is still part of the complete APC complex). Six peptides that reproducibly interacted with the Apc10 bait construct in Y2H assays were identified (FIG. 1A) and were examined further.
Random small peptides were cloned into the TrxA scaffold (library provided by R. Geyer, U of S) and expressed from a galactose-inducible Y2H prey vector in cells harboring either APC5 or APC10 Y2H bait vectors (APC5/APC10 bait constructs complement APC mutant defects).
as §9

apc5^CA cells = experiment: Yeast replicative lifespan (RLS) assay; assay type: cell-based
Method: as §5, §7

apc10Δ cells = experiment: Spot dilution growth of apc10Δ cells expressing peptides; assay type: cell-based, yeast; conditions: 30 and 34° C.
From the text: A. Y2H cells expressing the APC subunit bait and the galactose inducible Apc10 peptide prey grown on glucose or galactose. Cells co-expressing the Apc5 or Apc10-bait and Apc10 aptamer-prey vectors were spotted onto the appropriate media, in the presence or absence of galactose (the aptamers are Gal inducible), to confirm 2-hybrid interactions. Growth on trp-his-media ensures both plasmids are maintained. A 2-hybrid interaction will drive expression of the ADE2 gene, allowing growth on ade-media. B. Aptamers that bind Apc10 can suppress APC mutant phenotypes. Spot dilutions of apc10Δ cells expressing an empty vector control or the one of 6 Apc10 aptamers tested. Log phase cells were 10-fold serially diluted and spotted onto plates containing either 2% glucose or 2% galactose. The plates were then incubated at 30° C. (permissive temperature) and 34° C. (restrictive stress). C. Peptides identified as binding to the yeast Apc10 APC subunit using the yeast 2-hybrid screen increase growth of cells on stress conditions. A series of APC binding peptides were transformed into wild type yeast cells, spot diluted, and grown at 30° C. on media supplemented with the normal carbon source (2% glucose). Alternatively, cells were grown on media supplemented with 2% galactose to induce a carbon stress. D. Peptides were expressed in apc5^ts temperature sensitive cells and grown on glucose or galactose media at 30° C.
The cells were exposed to 5 sec of UV from a UV box prior to incubation.
The six peptide expressing vectors were transformed into apc10Δ cells and assessed for temperature sensitive growth. Two of the peptides, C43-4 and C2-4B, suppressed the apc10Δ growth phenotype at 30 and 34° C. (FIG. 1B-D). […]
Over 100 peptides that bound either Apc5 or Apc10 were recovered from millions screened. […] Vectors expressing these 6 peptides were transformed into APC mutant cells and assessed for ts growth.
Methods • 1. […] The growth of the cells was determined by measuring the optical density (OD) of the cells at 600 nm (OD600) • 3. […]

WT cells = experiment: Chronological lifespan of WT yeast cells; assay type: cell-based
Method: as §5, §6

| Compound | Markers of APC substrates in the tumor (Cyclin B) | Tumor growth [1] | Cell killing in combination with chemotherapy [2] | Growth / toxicity of activator alone in drug resistant breast cancer cells ([3]; 1 or 5 μM, 18 hrs, Trypan Blue) | Cell killing / toxicity in combination with chemotherapy (Doxorubicin) ([3]; Tamoxifen resistant MCF7 cells) | Levels of APC substrates (HURP) | Log phase growth of wild type (WT) cells ([4]; 30° C.) | Stress resistance at low level expression ([4]; WT cells on glucose, temperature and/or UV stress, versus empty vector) | Stress resistance when overexpressed in WT yeast cells ([4]; overexpressed, H2O2 oxidative stress, galactose carbon stress) | Viability of an APC mutant [5] | Germination of transformed wheat embryos (wheat embryos) | Level of tested APC substrate in the embryo (Securin) | Binds Apc10 in a yeast 2 hybrid assay (Apc10) | Replicative lifespan (apc5^CA cells) | apc10Δ growth phenotype (apc10Δ cells) | Chronological lifespan (WT cells) |
| --- | --- | --- | --- | --- | --- | --- | --- | --- | --- | --- | --- | --- | --- | --- | --- | --- |
| CC(C)CN(CC(C)C)c1ccc(C=C2C(=O)NC(=S)NC2=O)cc1[N+](=O)[O-] [M2I-1, Mad2 Inhibitor-1] | positive for APC activation | stalled | only in the presence of M2I-1 were cells killed | did not impair the growth; also recorded: not toxic | only in the presence of M2I-1 were cells killed; also recorded: enhances toxicity | reduced | – | – | – | – | – | – | – | – | – | – |
| NGSSHNDLRVRRLTLISRLC (also: expressed in thioredoxin scaffold) [C43-4, Peptide aptamer expressed from Thioredoxin scaffold; residues 2-14 homologous to Htz1] | – | – | – | – | – | – | Neither C43-4 nor C2-4B influenced | increased stress resistance | increased stress resistance | increases the viability | germinated faster | reduced level | Binds Apc10 | increased | suppressed | increased |
